From patent publication US20250066339A1, “HETEROCYCLE-SUBSTITUTED AROMATIC COMPOUND, METHOD FOR PREPARING SAME, HERBICIDAL COMPOSITION, AND USE THEREOF” (QINGDAO KINGAGROOT CHEMICAL COMPOUND CO., LTD., priority 2022, published 2025)

Legend:
Experiment in all cases: Post-emergence test on weeds
Assay type in all cases: in vivo
Design in all cases: key: Level 10: completely dead; Level 9: growth control rate greater than or equal to 90% and less than 100%; Level 8: growth control rate greater than or equal to 80% and less than 90%; Level 7: growth control rate greater than or equal to 70% and less than 80%; Level 6: growth control rate greater than or equal to 60% and less than 70%; Level 5: growth control rate greater than or equal to 50% and less than 60%; Level 4: growth control rate greater than or equal to 40% and less than 50%; Level 3: growth control rate greater than or equal to 30% and less than 40%; Level 2: growth control rate greater than or equal to 20% and less than 30%; Level 1: growth control rate less than 20%; Level 0: no effect
Conditions in all cases: 3 weeks after application, fresh weight control rate
Abutilon theophrasti = tested on: Abutilon theophrasti
From the text: (§1) The activity level criteria for plant damage (i.e., growth control rate) are as follows: • Level 10: completely dead; • Level 9: growth control rate greater than or equal to 90% and less than 100%; • Level 8: growth control rate greater than or equal to 80% and less than 90%; • Level 7: growth control rate greater than or equal to 70% and less than 80%; • Level 6: growth control rate greater than or equal to 60% and less than 70%; • Level 5: growth control rate greater than or equal to 50% and less than 60%; • Level 4: growth control rate greater than or equal to 40% and less than 50%; • Level 3: growth control rate greater than or equal to 30% and less than 40%; • Level 2: growth control rate greater than or equal to 20% and less than 30%; • Level 1: growth control rate less than 20%; • Level 0: no effect.
(§2) The above growth control rates are fresh weight control rates.
(§3) Monocotyledonous and dicotyledonous weed seeds (Descurainia sophia, Capsella bursa-pastoris, Abutilon theophrasti, Galium spurium, Stellaria media, Lithospermum arvense, Rorippa indica, Alopecurus aequalis, Alopecurus japonicus, Eleusine indica, Beckmannia syzigachne, Sclerochloa dura, Erigeron canadensis, Phleum paniculatum, Veronica polita, Bromus japonicus, Aegilops tauschii, Phalaris arundinacea, Amaranthus retroflexus, Chenopodium, Commelina communis, Cichorium endivia, Convolvulus arvensis, Cirsium arvense, Solanum nigrum, Acalypha australis, Digitaria sanguinalis, Echinochloa crus-galli, Setaria viridis, Setaria pumila, Leptochloa chinensis, Monochoria vaginalis, Sagittaria trifolia, Schoenoplectiella juncoides, Cyperus rotundus, Cyperus iria, Cyperus difformis, Fimbristylis, Portulaca oleracea, Xanthium sibiricum, Ipomoea nil, Eschenbachia japonica, etc.) and major crop seeds (wheat, maize, paddy rice, soybean, cotton, oilseed rape, millet, sorghum, potato, sesame, castor plant, etc.) were placed in plastic pots filled with soil and then covered with 0.5-2 cm of soil to allow them to grow in a favorable greenhouse environment. Two weeks after sowing, the test plants were treated at the stage of 2-3 leaves. The test compounds of the present invention were individually dissolved with acetone, then added with Tween® 80, with 1.5 L/ha of methyl oleate emulsifiable concentrate as a synergist, diluted into solutions of certain concentrations using certain amount of water, and sprayed to the plants using a spray tower. After drug application, the experimental results on weeds were collected after 3 weeks of cultivation in a greenhouse. The compounds were applied at 500, 250, 125, 60, 15, and 7.5 g a.i./ha in triplicate, and the results were averaged.

Amaranthus retroflexus = tested on: Amaranthus retroflexus
From the text: as §1, §2, §3

Digitaria sanguinalis = tested on: Digitaria sanguinalis
From the text: as §1, §2, §3

Echinochloa crus-galli = tested on: Echinochloa crus-galli
From the text: as §1, §2, §3

Setaria viridis = tested on: Setaria viridis
From the text: as §1, §2, §3

Veronica polita = tested on: Veronica polita
From the text: as §1, §2, §3

Cc1ccc(/C=N/OC(=O)C2(C)CC(c3cc(-c4ncc(C(F)(F)F)cc4Cl)c(F)cc3Cl)=NO2)s1 (stereo not drawn) [Compound 73]
10: activity level (growth control rate) Abutilon theophrasti (Abutilon theophrasti; 60 g a.i./ha) | activity level (growth control rate) Amaranthus retroflexus (Amaranthus retroflexus; 60 g a.i./ha) | activity level (growth control rate) Digitaria sanguinalis (Digitaria sanguinalis; 60 g a.i./ha) | activity level (growth control rate) Echinochloa crus-galli (Echinochloa crus-galli; 60 g a.i./ha) | activity level (growth control rate) Setaria viridis (Setaria viridis; 60 g a.i./ha) | activity level (growth control rate) Veronica polita (Veronica polita; 60 g a.i./ha)

CC1(C(=O)ON=C2CCCC2)CC(c2cc(-c3ncc(C(F)(F)F)cc3Cl)c(F)cc2Cl)=NO1 (stereo not drawn) [Compound 74]
10: activity level (growth control rate) Abutilon theophrasti (Abutilon theophrasti; 60 g a.i./ha) | activity level (growth control rate) Amaranthus retroflexus (Amaranthus retroflexus; 60 g a.i./ha) | activity level (growth control rate) Digitaria sanguinalis (Digitaria sanguinalis; 60 g a.i./ha) | activity level (growth control rate) Echinochloa crus-galli (Echinochloa crus-galli; 60 g a.i./ha) | activity level (growth control rate) Setaria viridis (Setaria viridis; 60 g a.i./ha) | activity level (growth control rate) Veronica polita (Veronica polita; 60 g a.i./ha)

CCOC(=O)CCC1(C)CC(c2cc(-c3ncc(C(F)(F)F)cc3Cl)c(F)cc2Cl)=NO1 (stereo not drawn) [Compound 76]
10: activity level (growth control rate) Abutilon theophrasti (Abutilon theophrasti; 15 g a.i./ha) | activity level (growth control rate) Amaranthus retroflexus (Amaranthus retroflexus; 15 g a.i./ha) | activity level (growth control rate) Digitaria sanguinalis (Digitaria sanguinalis; 15 g a.i./ha) | activity level (growth control rate) Echinochloa crus-galli (Echinochloa crus-galli; 15 g a.i./ha) | activity level (growth control rate) Setaria viridis (Setaria viridis; 15 g a.i./ha) | activity level (growth control rate) Veronica polita (Veronica polita; 15 g a.i./ha)

CCSC(=O)C1(C)CC(c2cc(-c3ncc(C(F)(F)F)cc3Cl)c(F)cc2Cl)=NO1 (stereo not drawn) [Compound 78]
10: activity level (growth control rate) Abutilon theophrasti (Abutilon theophrasti; 15 g a.i./ha) | activity level (growth control rate) Amaranthus retroflexus (Amaranthus retroflexus; 15 g a.i./ha) | activity level (growth control rate) Digitaria sanguinalis (Digitaria sanguinalis; 15 g a.i./ha) | activity level (growth control rate) Echinochloa crus-galli (Echinochloa crus-galli; 15 g a.i./ha) | activity level (growth control rate) Setaria viridis (Setaria viridis; 15 g a.i./ha) | activity level (growth control rate) Veronica polita (Veronica polita; 15 g a.i./ha)

CCOC(=O)C1(C)CC(c2cc(-c3ncc(OC)cc3Cl)c(F)cc2Cl)=NO1 (stereo not drawn) [Compound 102]
10: activity level (growth control rate) Abutilon theophrasti (Abutilon theophrasti; 60 g a.i./ha) | activity level (growth control rate) Amaranthus retroflexus (Amaranthus retroflexus; 60 g a.i./ha) | activity level (growth control rate) Digitaria sanguinalis (Digitaria sanguinalis; 60 g a.i./ha) | activity level (growth control rate) Echinochloa crus-galli (Echinochloa crus-galli; 60 g a.i./ha) | activity level (growth control rate) Setaria viridis (Setaria viridis; 60 g a.i./ha) | activity level (growth control rate) Veronica polita (Veronica polita; 60 g a.i./ha)

C=C(C)c1cnc(-c2cc(C3=NOC(C)(C(=O)OCSC)C3)c(Cl)cc2F)c(Cl)c1 (stereo not drawn) [Compound 104]
10: activity level (growth control rate) Abutilon theophrasti (Abutilon theophrasti; 60 g a.i./ha) | activity level (growth control rate) Amaranthus retroflexus (Amaranthus retroflexus; 60 g a.i./ha) | activity level (growth control rate) Digitaria sanguinalis (Digitaria sanguinalis; 60 g a.i./ha) | activity level (growth control rate) Echinochloa crus-galli (Echinochloa crus-galli; 60 g a.i./ha) | activity level (growth control rate) Setaria viridis (Setaria viridis; 60 g a.i./ha) | activity level (growth control rate) Veronica polita (Veronica polita; 60 g a.i./ha)

CSCCOC(=O)C1CC(c2cc(-c3ncc(C(F)(F)F)cc3Cl)c(F)cc2Cl)=NO1 (stereo not drawn) [Compound 105]
10: activity level (growth control rate) Abutilon theophrasti (Abutilon theophrasti; 60 g a.i./ha) | activity level (growth control rate) Amaranthus retroflexus (Amaranthus retroflexus; 60 g a.i./ha) | activity level (growth control rate) Digitaria sanguinalis (Digitaria sanguinalis; 60 g a.i./ha) | activity level (growth control rate) Echinochloa crus-galli (Echinochloa crus-galli; 60 g a.i./ha) | activity level (growth control rate) Setaria viridis (Setaria viridis; 60 g a.i./ha) | activity level (growth control rate) Veronica polita (Veronica polita; 60 g a.i./ha)

C=C(C)c1cnc(-c2cc(C3=NOC(C)(C(=O)ON=C(C)C)C3)c(Cl)cc2F)c(Cl)c1 (stereo not drawn) [Compound 113]
10: activity level (growth control rate) Abutilon theophrasti (Abutilon theophrasti; 60 g a.i./ha) | activity level (growth control rate) Amaranthus retroflexus (Amaranthus retroflexus; 60 g a.i./ha) | activity level (growth control rate) Digitaria sanguinalis (Digitaria sanguinalis; 60 g a.i./ha) | activity level (growth control rate) Echinochloa crus-galli (Echinochloa crus-galli; 60 g a.i./ha) | activity level (growth control rate) Setaria viridis (Setaria viridis; 60 g a.i./ha) | activity level (growth control rate) Veronica polita (Veronica polita; 60 g a.i./ha)

CC(C)=NOC(=O)C1(C2CC2)CC(c2cc(-c3ncc(C(F)(F)F)cc3Cl)c(F)cc2Cl)=NO1 (stereo not drawn) [Compound 129]
10: activity level (growth control rate) Abutilon theophrasti (Abutilon theophrasti; 60 g a.i./ha) | activity level (growth control rate) Amaranthus retroflexus (Amaranthus retroflexus; 60 g a.i./ha) | activity level (growth control rate) Digitaria sanguinalis (Digitaria sanguinalis; 60 g a.i./ha) | activity level (growth control rate) Echinochloa crus-galli (Echinochloa crus-galli; 60 g a.i./ha) | activity level (growth control rate) Setaria viridis (Setaria viridis; 60 g a.i./ha) | activity level (growth control rate) Veronica polita (Veronica polita; 60 g a.i./ha)
